How the values were obtained:
downy brome = assay: Test E downy brome; type: in vivo, Bromus tectorum; details: Preemergence
purple nutsedge = assay: Test D purple nutsedge; type: in vivo, Cyperus rotundus; details: Postemergence, 0 to 100 scale; for Purple nutsedge plant response rating: 0 no injury, 100 complete control
field violet = assay: Test E field violet; type: in vivo, Viola arvensis; details: Postemergence; for Plant response rating, Field violet: 0 to 100 scale
Outline: (§1)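 For postemergence, application to 1- to 4-leaf plants growing in a 60:40 sandy loam–potting mix substrate. Formulation: non-phytotoxic solvent mixture plus surfactant. Untreated controls served as the reference for the visual rating after ~21–28 days.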

windgrass = assay: Test E windgrass; type: in vivo, Apera spica-venti; details: Preemergence
galium = assay: Test E galium; type: in vivo, Galium aparine; details: Preemergence
scentless chamomile = assay: Test E scentless chamomile; type: in vivo, Matricaria inodora; details: Preemergence
redroot pigweed = assay: Test E redroot pigweed; type: in vivo, Amaranthus retroflexus; details: Postemergence; for Plant response rating, Redroot pigweed: 0 to 100 scale
Outline: as §1

Russian thistle [1] = assay: Test E Russian thistle; type: in vivo, Salsola kali; details: Postemergence; for Plant response rating, Russian thistle: 0 to 100 scale
Outline: as §1

itchgrass = assay: Test D itchgrass; type: in vivo, Rottboellia exaltata; details: Postemergence, 0 to 100 scale
Russian thistle [2] = assay: Test E Russian thistle; type: in vivo, Salsola kali; details: Preemergence
winter barley = assay: Test E winter barley; type: in vivo, Hordeum vulgare; details: Postemergence; for Plant response rating, Barley (winter): 0 to 100 scale
Outline: as §1

deadnettle [3] = assay: Test E deadnettle; type: in vivo, Lamium amplexicaule; details: Preemergence
wild oat = assay: Test E wild oat; type: in vivo, Avena fatua; details: Postemergence; for Plant response rating, Wild oat: 0 to 100 scale
Outline: as §1

sugar beet [4] = assay: Test E sugar beet; type: in vivo, Beta vulgaris; details: Postemergence; for Plant response rating, Sugar beet: 0 to 100 scale
Outline: as §1

goosegrass = assay: Test D goosegrass; type: in vivo, Eleusine indica; details: Postemergence, 0 to 100 scale
black nightshade = assay: Test E black nightshade; type: in vivo, Solanum nigra; details: Postemergence; for Plant response rating, Blk nightshade: 0 to 100 scale
Outline: as §1

spring wheat = assay: Test E spring wheat; type: in vivo, Triticum aestivum; details: Preemergence
large crabgrass = assay: Test D large crabgrass; type: in vivo, Digitaria sanguinalis; details: Postemergence, 0 to 100 scale
sugar beet [5] = assay: Test E sugar beet; type: in vivo, Beta vulgaris; details: Preemergence
ivyleaf speedwell = assay: Test E postemergence ivyleaf speedwell; type: in vivo, Veronica hederaefolia; details: for Plant response rating, Veronica hedera: 0 to 100 scale
Outline: as §1

Alexandergrass = assay: Test D Alexandergrass; type: in vivo, Brachiaria plantaginea; details: Postemergence
sandbur = assay: Test D sandbur; type: in vivo, Cenchrus echinatus; details: Postemergence, 0 to 100 scale
deadnettle [6] = assay: Test E deadnettle; type: in vivo, Lamium amplexicaule; details: Postemergence, 0 to 100 scale
Outline: as §1

[7] = Rate 125 g/ha, 0 to 100 scale (0 no effect, 100 complete control)
[8] = Rate 500 g/ha, 0 to 100 scale where 0 is no effect and 100 is complete control
[9] = Rate 500 g/ha, 0 no effect, 100 complete control
[10] = Rate 250 g/ha, 0 to 100 scale where 0 is no effect and 100 is complete control
[11] = Rate 64 g/ha, 0 no injury, 100 complete control
[12] = Rate 125 g/ha, 0 no injury, 100 complete control

## C=CCn1c(=O)on(C(=O)N(c2ccc(F)cc2)C(C)C)c1=O [Compound 146]
Downy brome; [7]
  Plant response rating, Downy brome: 60
Downy brome; Rate 250 g/ha
  Downy brome plant response rating (0 to 100 scale): 0
Downy brome; [8]
  Plant response rating, Downy brome: 60
Purple nutsedge; Rate 64 g/ha
  Purple nutsedge plant response rating: 0
Purple nutsedge; Rate 125 g/ha
  Purple nutsedge plant response rating: 0
Purple nutsedge; Rate 250 g/ha
  Plant response rating, Purple nutsedge: 0
Purple nutsedge; Rate 500 g/ha
  Plant response rating, Purple nutsedge: 35
Field violet; Rate 62 g/ha
  Plant response rating, Field violet: 50
Field violet; Rate 125 g/ha
  Plant response rating, Field violet: 0
Field violet; [9]
  Plant response rating, Field violet: 10
Field violet; [10]
  Field violet plant response rating: 0
windgrass; [7]
  Plant response rating, Windgrass: 100
windgrass; Rate 250 g/ha
  Windgrass plant response rating (0 to 100 scale): 100
windgrass; [8]
  Plant response rating, Windgrass: 100
galium; [7]
  Plant response rating, Galium: 40
galium; Rate 250 g/ha
  Galium plant response rating (0 to 100 scale): 50
galium; [8]
  Plant response rating, Galium: 95
Scentless chamomile; [7]
  Plant response rating, Scentless chamo: 15
Scentless chamomile; Rate 250 g/ha
  Scentless chamo plant response rating (0 to 100 scale): 100
Scentless chamomile; [8]
  Plant response rating, Scentless chamo: 80
Redroot pigweed; Rate 62 g/ha
  Plant response rating, Redroot pigweed: 30
Redroot pigweed; Rate 125 g/ha
  Plant response rating, Redroot pigweed: 20
Redroot pigweed; [9]
  Plant response rating, Redroot pigweed: 50
Redroot pigweed; [10]
  Redroot pigweed plant response rating: 10
Russian thistle [1]; Rate 62 g/ha
  Plant response rating, Russian thistle: 20
Russian thistle [1]; Rate 125 g/ha
  Plant response rating, Russian thistle: 0
Russian thistle [1]; [9]
  Plant response rating, Russian thistle: 0
Russian thistle [1]; [10]
  Russian thistle plant response rating: 0
itchgrass; [11]
  Plant response rating, Itchgrass: 30
itchgrass; [12]
  Plant response rating, Itchgrass: 30
itchgrass; Rate 250 g/ha
  Plant response rating, Itchgrass: 50
itchgrass; Rate 500 g/ha
  Plant response rating, Itchgrass: 65
Russian thistle [2]; [7]
  Plant response rating, Russian thistle: 0
Russian thistle [2]; Rate 250 g/ha
  Russian thistle plant response rating (0 to 100 scale): 0
Russian thistle [2]; [8]
  Plant response rating, Russian thistle: 10
Winter barley; Rate 62 g/ha
  Plant response rating, Barley (winter): 5
Winter barley; Rate 125 g/ha
  Plant response rating, Barley (winter): 10
Winter barley; [9]
  Plant response rating, Barley (winter): 20
Winter barley; [10]
  Barley (winter) plant response rating: 10
Deadnettle [3]; [7]
  Plant response rating, Deadnettle: 40
Deadnettle [3]; Rate 250 g/ha
  Deadnettle plant response rating (0 to 100 scale): 40
Deadnettle [3]; [8]
  Plant response rating, Deadnettle: 50
Wild oat; Rate 62 g/ha
  Plant response rating, Wild oat: 20
Wild oat; Rate 125 g/ha
  Plant response rating, Wild oat: 5
Wild oat; [9]
  Plant response rating, Wild oat: 10
Wild oat; [10]
  Wild oat plant response rating: 0
Sugar beet [4]; Rate 62 g/ha
  Plant response rating, Sugar beet: 0
Sugar beet [4]; Rate 125 g/ha
  Plant response rating, Sugar beet: 20
Sugar beet [4]; [9]
  Plant response rating, Sugar beet: 40
Sugar beet [4]; [10]
  Sugar beet plant response rating: 30
goosegrass; [11]
  Plant response rating, Goosegrass: 0
goosegrass; [12]
  Plant response rating, Goosegrass: 35
goosegrass; Rate 250 g/ha
  Plant response rating, Goosegrass: 30
goosegrass; Rate 500 g/ha
  Plant response rating, Goosegrass: 80
Black nightshade; Rate 62 g/ha
  Plant response rating, Blk nightshade: 50
Black nightshade; Rate 125 g/ha
  Plant response rating, Blk nightshade: 50
Black nightshade; [9]
  Plant response rating, Blk nightshade: 70
Black nightshade; [10]
  Blk nightshade plant response rating: 40
Spring wheat; [7]
  Plant response rating, Spring Wheat: 50
Spring wheat; Rate 250 g/ha
  Spring Wheat plant response rating (0 to 100 scale): 80
Spring wheat; [8]
  Plant response rating, Spring Wheat: 100
Large crabgrass; [11]
  Plant response rating Large crabgrass: 20
Large crabgrass; [12]
  Plant response rating Large crabgrass: 20
Large crabgrass; Rate 250 g/ha
  Plant response rating Large crabgrass: 50
Large crabgrass; Rate 500 g/ha
  Plant response rating Large crabgrass: 65
Sugar beet [5]; [7]
  Plant response rating, Sugar beet: 60
Sugar beet [5]; Rate 250 g/ha
  Sugar beet plant response rating (0 to 100 scale): 60
Sugar beet [5]; [8]
  Plant response rating, Sugar beet: 80
Ivyleaf speedwell; Rate 125 g/ha
  Plant response rating, Veronica hedera: 60
Ivyleaf speedwell; [10]
  Veronica hedera plant response rating: 40
Ivyleaf speedwell; [9]
  Plant response rating, Veronica hedera: 70
Alexandergrass; Rate 64 g/ha, 0 to 100 scale, 0 no injury, 100 complete control
  Plant response rating, Alexandergrass: 10
Alexandergrass; Rate 125 g/ha, 0 to 100 scale, 0 no injury, 100 complete control
  Plant response rating, Alexandergrass: 20
Alexandergrass; Rate 250 g/ha, 0 to 100 scale
  Plant response rating, Alexandergrass: 40
Alexandergrass; Rate 500 g/ha, 0 to 100 scale (0 no injury, 100 complete control)
  Plant response rating, Alexandergrass: 65
Alexandergrass; Rate 500 g/ha, 0 to 100 scale
  Plant response rating, Alexandergrass: 65
sandbur; [11]
  Sandbur plant response rating: 0
sandbur; Rate 250 g/ha
  Plant response rating, Sandbur: 85
sandbur; Rate 500 g/ha
  Plant response rating, Sandbur: 80
Deadnettle [6]; Rate 62 g/ha
  Plant response rating, Deadnettle: 50
Deadnettle [6]; Rate 125 g/ha
  Plant response rating, Deadnettle: 10
Deadnettle [6]; [9]
  Plant response rating, Deadnettle: 20

Source: patent US6737383B1, “Herbicidal oxadiazolidines” (priority 1999, dated 2004)
